Source: ChEMBL document CHEMBL1159078, “Bicyclic peptides as potent inhibitors of histone deacetylases: optimization of alkyl loop length” (Bioorg Med Chem Lett, 2010)
Where a SMILES comes first, the peptide text is derived from it. [ ]: non-standard residue; d: D form. The star is where a group is joined. Asu = N[C@@H](CCCCCC(=O)O)C(=O)O; dAhp(2) = CCCCC[C@@H](N)C(=O)O; Ahp(2) = CCCCC[C@H](N)C(=O)O; NHOH = ON*

What was measured:
Histone deacetylase 4 [1] = target: T1, Histone deacetylase 4 (Homo sapiens, UniProt P56524)
Histone deacetylase 1 = Histone deacetylase 1 (Homo sapiens, UniProt Q13547); experiment: Inhibition of HDAC1
Histone deacetylase 4 [2] = target: T1, Histone deacetylase 4; experiment: Inhibition of HDAC4
[3] = target: T2, Protein deacetylase HDAC6 (Homo sapiens, UniProt Q9UBN7); experiment: Inhibition of HDAC6
T2 sequence (Q9UBN7 whole entry): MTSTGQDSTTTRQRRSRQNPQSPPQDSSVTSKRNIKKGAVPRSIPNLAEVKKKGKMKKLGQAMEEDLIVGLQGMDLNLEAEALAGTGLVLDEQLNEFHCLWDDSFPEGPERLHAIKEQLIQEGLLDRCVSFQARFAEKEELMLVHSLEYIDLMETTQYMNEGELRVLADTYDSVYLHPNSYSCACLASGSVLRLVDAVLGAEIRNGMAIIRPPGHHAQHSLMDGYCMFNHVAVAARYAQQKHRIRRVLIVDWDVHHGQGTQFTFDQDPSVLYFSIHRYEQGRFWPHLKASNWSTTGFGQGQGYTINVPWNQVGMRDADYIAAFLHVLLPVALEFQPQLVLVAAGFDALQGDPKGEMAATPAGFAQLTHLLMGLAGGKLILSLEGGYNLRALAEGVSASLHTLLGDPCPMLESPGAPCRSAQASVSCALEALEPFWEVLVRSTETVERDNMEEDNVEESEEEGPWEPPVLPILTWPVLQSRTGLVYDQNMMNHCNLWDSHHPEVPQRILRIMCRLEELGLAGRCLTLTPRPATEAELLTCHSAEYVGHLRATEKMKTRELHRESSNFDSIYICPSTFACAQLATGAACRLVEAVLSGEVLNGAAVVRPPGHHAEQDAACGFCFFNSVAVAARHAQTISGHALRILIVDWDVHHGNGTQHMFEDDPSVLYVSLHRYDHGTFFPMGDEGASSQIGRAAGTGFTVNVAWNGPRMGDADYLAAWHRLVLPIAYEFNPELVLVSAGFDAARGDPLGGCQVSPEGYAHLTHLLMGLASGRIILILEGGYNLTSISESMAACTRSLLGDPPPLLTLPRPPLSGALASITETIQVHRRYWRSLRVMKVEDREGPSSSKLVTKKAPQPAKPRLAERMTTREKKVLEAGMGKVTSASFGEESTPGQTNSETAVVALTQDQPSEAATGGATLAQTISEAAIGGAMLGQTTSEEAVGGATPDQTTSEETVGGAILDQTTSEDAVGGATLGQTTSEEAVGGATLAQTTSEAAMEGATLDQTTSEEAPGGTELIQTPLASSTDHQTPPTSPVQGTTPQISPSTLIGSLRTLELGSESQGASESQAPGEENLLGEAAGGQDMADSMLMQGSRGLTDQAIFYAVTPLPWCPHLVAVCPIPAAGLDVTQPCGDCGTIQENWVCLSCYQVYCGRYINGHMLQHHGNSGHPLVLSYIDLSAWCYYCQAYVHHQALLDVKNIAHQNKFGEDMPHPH

[4] = Selectivity ratio, IC50 for HDAC6 to IC50 for HDAC4

Histone deacetylase 1, sequence (Q13547 whole entry): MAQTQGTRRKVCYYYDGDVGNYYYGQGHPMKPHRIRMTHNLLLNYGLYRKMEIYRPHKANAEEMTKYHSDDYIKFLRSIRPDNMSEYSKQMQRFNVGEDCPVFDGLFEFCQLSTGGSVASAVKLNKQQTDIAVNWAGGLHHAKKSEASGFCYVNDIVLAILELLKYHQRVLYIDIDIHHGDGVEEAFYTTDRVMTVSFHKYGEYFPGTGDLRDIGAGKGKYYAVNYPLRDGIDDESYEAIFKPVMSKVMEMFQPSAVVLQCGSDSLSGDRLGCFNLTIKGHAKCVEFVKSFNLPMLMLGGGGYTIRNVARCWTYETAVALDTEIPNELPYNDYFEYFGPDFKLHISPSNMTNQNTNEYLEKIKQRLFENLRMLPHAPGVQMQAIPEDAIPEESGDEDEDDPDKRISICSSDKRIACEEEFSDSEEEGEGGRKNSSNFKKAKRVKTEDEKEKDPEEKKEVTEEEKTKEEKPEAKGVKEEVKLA
T1 sequence (P56524 whole entry): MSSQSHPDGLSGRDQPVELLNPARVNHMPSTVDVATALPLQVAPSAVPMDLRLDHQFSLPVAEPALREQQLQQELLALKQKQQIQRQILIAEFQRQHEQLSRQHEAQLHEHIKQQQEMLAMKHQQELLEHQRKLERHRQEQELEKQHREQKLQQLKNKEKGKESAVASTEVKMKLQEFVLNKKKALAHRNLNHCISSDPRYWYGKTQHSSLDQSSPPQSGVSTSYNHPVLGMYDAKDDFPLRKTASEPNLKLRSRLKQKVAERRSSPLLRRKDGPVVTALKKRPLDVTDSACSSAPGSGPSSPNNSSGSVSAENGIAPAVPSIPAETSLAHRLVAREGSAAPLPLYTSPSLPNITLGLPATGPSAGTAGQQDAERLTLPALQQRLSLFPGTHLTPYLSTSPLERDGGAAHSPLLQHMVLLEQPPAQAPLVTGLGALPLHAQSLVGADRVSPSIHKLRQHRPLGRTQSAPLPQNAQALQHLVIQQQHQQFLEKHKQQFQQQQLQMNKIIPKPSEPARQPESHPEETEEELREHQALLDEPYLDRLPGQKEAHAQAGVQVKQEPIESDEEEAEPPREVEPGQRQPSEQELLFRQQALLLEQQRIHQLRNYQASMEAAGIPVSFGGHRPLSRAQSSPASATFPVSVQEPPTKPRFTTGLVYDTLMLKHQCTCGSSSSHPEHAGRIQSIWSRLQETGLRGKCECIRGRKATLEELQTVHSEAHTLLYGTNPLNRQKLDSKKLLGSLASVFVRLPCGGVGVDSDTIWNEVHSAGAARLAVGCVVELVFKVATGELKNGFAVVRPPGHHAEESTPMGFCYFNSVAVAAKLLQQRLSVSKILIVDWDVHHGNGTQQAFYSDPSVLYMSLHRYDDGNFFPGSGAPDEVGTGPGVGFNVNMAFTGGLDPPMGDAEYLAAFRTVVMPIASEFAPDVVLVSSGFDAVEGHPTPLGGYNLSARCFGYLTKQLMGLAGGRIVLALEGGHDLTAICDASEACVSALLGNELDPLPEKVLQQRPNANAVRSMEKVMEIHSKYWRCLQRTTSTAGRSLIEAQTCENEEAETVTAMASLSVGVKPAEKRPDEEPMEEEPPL

Row | SMILES | EC1000 (Histone deacetylase 4 [1]) [nM] | IC50 (Histone deacetylase 1) [nM] | IC50 (Histone deacetylase 4 [2]) [nM] | IC50 [3] [nM] | Ratio IC50 [4]
1 | O=C(CCCCC[C@@H]1NC(=O)[C@H]2CCCN2C(=O)[C@@H]2CCCCCCCCCCC[C@@H](NC1=O)C(=O)N2)NO | 2.6 | 11 | 4.5 | 280 | –
2 | CC(/C=C/C(=O)NO)=C\[C@@H](C)C(=O)c1ccc(N(C)C)cc1 | 20 | – | – | – | –
3 | O=C(CCCCC[C@@H]1NC(=O)[C@H]2CCCN2C(=O)[C@@H]2CCCCCCCCCCCC[C@@H](NC1=O)C(=O)N2)NO | 2 | 13 | 5 | 240 | –
4 | CCCCC[C@@H]1NC(=O)[C@@H](CCCCC)NC(=O)[C@H](CCCCCC(=O)NO)NC(=O)[C@H]2CCCN2C1=O (cyclo([Ahp(2)][dP][Asu](NHOH)[dAhp(2)])) | 13 | 25 | 12 | 340 | –
5 | O=C(CCCCC[C@@H]1NC(=O)[C@H]2CCCN2C(=O)[C@@H]2CCCCCCCCCC[C@@H](NC1=O)C(=O)N2)NO | 7.2 | 9.1 | 5.5 | 410 | 75
6 | O=C(CCCCC[C@@H]1NC(=O)[C@H]2CCCN2C(=O)[C@@H]2CCCCCCCCC[C@@H](NC1=O)C(=O)N2)NO | 92 | 9.1 | 5.4 | 330 | –
